Results: patent US6413521B1, “Helminth parasite antigen with aminopeptidase-like activity” (The Barbraham Institute, priority 1993, dated 2002)

Columns and labels:
[1] = tested on: Con A Oo12 ApM activity; experiment: Con A O12 aminopeptidase inhibition assay, ApM (leucine p-nitroanilide); assay type: biochemical, Ostertagia ostertagi
Experimental: (§1) The effect of various protease inhibitors on Oo12 activity was assayed and included amastatin (aminopeptidase inhibitor), actinonin (aminopeptidase inhibitor), bestatin (aminopeptidase inhibitor), EDTA (metallo-protease inhibitor), E64 (cysteine protease inhibitor), pepstatin (aspartic protease inhibitor), 1,10 phenanthroline (metallo-protease inhibitor) and 3,4-dichloroisocoumarin (DCI, serine protease inhibitor). 10 μl Con A Oo12 and 100 μl 50 mM Mops buffer, pH 7.0 was added to a microtitre plate well and 2-4 μl of enzyme inhibitor added, to give a final concentration of 0.5 mM and 1 mM actinonin, 50 μM and 100 μM bestatin, 1 mM and 15 mM EDTA, 50 μM and 100 μM E64, 10 and 50 μM pepstatin, 1 mM and 10 mM 1,10 phenanthroline, 100 μM and 500 μM DCI. The plate was preincubated at 37° C. for 20-28 minutes and then assayed for ApM and ApA activity. 100 μl 2 mM leucine p-nitroanilide (ApM) or α-glutamic p-nitroanilide (ApA)/Mops was added per well and the optical density (OD) at 405 nm read using an Elisa plate reader. The plates were incubated at 37° C. for 45-48 minutes and the final OD reading was then taken. The OD change per minute per 10 μl sample was calculated. All assays were carried out in triplicate.

[2] = tested on: Con A Oo12 ApA activity; experiment: Con A O12 aminopeptidase inhibition assay, ApA (α-glutamic p-nitroanilide); assay type: biochemical, Ostertagia ostertagi
Experimental: as §1

[3] = tested on: pig ApA and ApM; conditions: Aoyagi et al., J. Antibiotics 43(2); cited from earlier work
[4] = tested on: Oc12; experiment: Blot of O. circumcincta extracts probed with biotinylated lectins; assay type: binding, Ostertagia circumcincta; conditions: electroblot of O.circumcincta extracts
From the text: The O.circumcincta extracts were electroblotted alongside a sample of H110D and probed with several biotinylated lectins to determine which, if any, would bind to Oc12. (FIG. 8). Biotinylated Concanavalin A, Ulex europaeus, Triticum vulgaris, Dolichos biflorus and Arachis hypogea lectins were used at dilutions optimised for use with H110D. […] U.europaeus lectin bound to several low molecular weight bands and may be used as an affinity chromatography column for removing low molecular weight protein from OcThHS. The wash-through fractions from such a column were applied to a Con A affinity column and the bound proteins were eluted with a gradient of 0-100% 0.5M methylglucoside (FIG. 9). Fractions were assayed for aminopeptidase-like activity (FIG. 10). Aminopeptidase M-like activity was present in the binding fractions.

[5] = tested on: Ostertagia ostertagi PHP; experiment: Protease digestion of Oo PhP, release of ApM activity; assay type: biochemical
Experimental: Method: Oo PhP was resuspended in 50 mM Mops buffer, pH 7.0 to give 0.1 mg pellet/ml. 50 μl aliquots were prewarmed at 37° C. for 39 minutes. 5 μl of either α-Chymotrypsin (Sigma type VII, 50 units/mg solid), Subtilisin (Sigma type VIII, 11.6 units/mg solid), Trypsin (Sigma, TPCK-treated type XIII, 9700 units/mg solid) or Thermolysin (Sigma, 37 units/mg solid dissolved in 1 mM KCl/2 mM CaCl) was added to give final protease concentrations of 5, 50, 500, 1000 and 2000 μg/ml. Aliquots containing chymotrypsin, trypsin or subtilisin were then incubated at 37° C. for 1 hour and protease activity inhibited by the addition of 1 μl 10 mM 3,4-dichloroisocoumarin (DCI). Aliquots containing thermolysin were incubated for 2 hours at 37° C. and activity inhibited by the addition of 1 μl 0.25M EDTA. Samples were spun at high speed on the airfuge at 20 psi for 20 minutes at room temperature. 5 μl samples were assay for ApM activity, using the microtitre plate method, over 29.6 minutes with methionine-pNA as substrate.

[6] = tested on: O. ostertagi extracted residue (microsomal aminopeptidase); experiment: Trypsin digestion of O12: aminopeptidase activity released from extracted O. ostertagi residue; assay type: biochemical, Ostertagia ostertagi
Experimental: The residue obtained by centrifuging an homogenate of O. ostertagi in phosphate-buffered saline containing 0.02% sodium azide (PBSa) at 26,500 g (max) for 20 minutes in a swing-out rotor was re-extracted 3 times with PBSa, once with 1% polyoxyethylenesorbitan monolaurate (Tween 20) in PBSa and once with 50 mM 3-[N-morpholino]propane-sulphonic acid (MOPS) pH 8.0. The extracted residue was resuspended in 50 mM MOPS to give the equivalent of 0.17 g worm starting material per ml. Aliquots were digested with 0.5, 5, 50 or 500 μg TPCK-trypsin (trypsin treated with L-1-tosylamide-2-phenylethylchloromethyl ketone)/ml. Digestions were stopped by the addition of 10 mM DCI (15 μl/ml). […] Release of microsomal aminopeptidase A activity was negligible from pellets digested with 0-50 μg TPCK-trypsin/ml.
In another experiment material from 5 g O. ostertagi was digested twice with 50 μg/ml TPCK-trypsin. About 33% of the original amount of ApM was released after a second digest. […] Fractions were run on SDS-PAGE on a 6-16% minigel. After Coomassie blue staining, a band located around the 116,000 region, about the size expected from tryptic digestion of O12 was located in the fractions having the microsomal aminopeptidase activity.
A further 4.3 g of O. ostertagi was digested twice with TPCK-trypsin as above. The total aminopeptidase activity solubilised equalled 455 nmoles/min (Table 6). The high speed supernatants from the first and second digests (Trypsin HS1 & HS2) were buffer exchanged with ConA buffer A and run on a ConA sepharose column. The start material applied to the column was enriched for ApM activity, having a ratio of ApM:ApA of 18:1. All the ApM activity bound to the column (there was none in the wash-through); and 67% of this was recovered by elution with 0.5M methylglucopyranoside+0.2M methylmannoside. (Thus the use of two sugars in the eluting buffer more than doubled ApM recovery from the ConA column.) Fractions containing ApM activity were pooled, concentrated and subjected to gel filtration (on an FPLC Superdex 75 HR10/30 (Pharmacia) column). […]

For `CC(C)C[C@@H](N)[C@H](O)C(=O)N[C@H](C(=O)N[C@H](C(=O)N[C@@H](CC(=O)O)C(=O)O)C(C)C)C(C)C` [Amaststin, amastatin], the Leu-pNA enzyme activity ([1]; inhibitor 10 μM) was 0.218 nmoles/min/10 μl ConA O12, the Leu-pNA enzyme inhibition ([1]; inhibitor 10 μM) was 86% and the Leu-pNA enzyme activity ([1]; inhibitor 50 μM) was 0.074 nmoles/min/10 μl ConA O12. For the same molecule, the Leu-pNA enzyme inhibition ([1]; inhibitor 50 μM) was 95%, the α-Glu-pNA enzyme activity ([2]; inhibitor 10 μM) was 0.282 nmoles/min/10 μl ConA O12 and the α-Glu-pNA enzyme inhibition ([2]; inhibitor 10 μM) was 12%. The α-Glu-pNA enzyme activity ([2]; inhibitor 50 μM) was 0.205 nmoles/min/10 μl ConA O12, the α-Glu-pNA enzyme inhibition ([2]; inhibitor 50 μM) was 36% and the “inhibition of pig ApA versus ApM” value [3] was “better inhibitor of pig ApA than of ApM”.

B1: D.biflorus lectin: biotinylated Dolichos biflorus lectin (protein)
chain: ANIQSFSFKNFNSPSFILQGDATVSSGKLQLTKVKENGIPTPSSLGRAFYSSPIQIYDKSTGAVASWATSFTVKISAPSKASFADGIAFALVPVGSEPRRNGGYLGVFDSDVYNNSAQTVAVEFDTFSNSGWDPSMKHIGIDVNSIKSIATVSWDLANGENAEILITYNAATSLLVASLVHPSRRTSYILSERVDITNELPEYVSVGFSATTGLSEGYIETHDVLSWSFASKLPDDSTAEPLDLASYLVRNVL
With B1 the “binding of biotinylated lectin to Oc12” value [4] was “binds very weakly”.

B2: Trypsin: protease, Sigma, TPCK-treated type XIII, 9700 units/mg solid (protein, UniProt P00760 24-246, looked up)
Serine protease 1: IVGGYTCGANTVPYQVSLNSGYHFCGGSLINSQWVVSAAHCYKSGIQVRLGEDNINVVEGNEQFISASKSIVHPSYNSNTLNNDIMLIKLKSAASLNSRVASISLPTSCASAGTQCLISGWGNTKSSGTSYPDVLKCLKAPILSDSSCKSAYPGQITSNMFCAGYLEGGKDSCQGDSGGPVVCSGKLQGIVSWGSGCAQKNKPGVYTKVCNYVSWIKQTIASN
modifications: TPCK-treated
notes: protease, Sigma, TPCK-treated type XIII, 9700 units/mg solid
With B2 the “Aminopeptidase M activity released by protease digestion, Met-pNA” value (shortened to “Aminopeptidase M activity released”) ([5]; 5 μg protease/0.1 mg PHP/ml) was 0.118 nmoles/min/5 μl high speed supernatant, the “Aminopeptidase M activity released” value ([5]; 50 μg protease/0.1 mg PHP/ml) was 0.246 nmoles/min/5 μl high speed supernatant and the “Aminopeptidase M activity released” value ([5]; 500 μg protease/0.1 mg PHP/ml) was 1.075 nmoles/min/5 μl high speed supernatant. The “Aminopeptidase M activity released” value ([5]; 1000 μg protease/0.1 mg PHP/ml) was 1.273 nmoles/min/5 μl high speed supernatant, the “Aminopeptidase M activity released” value ([5]; 2000 μg protease/0.1 mg PHP/ml) was 1.068 nmoles/min/5 μl high speed supernatant and the “release of microsomal aminopeptidase A activity” value ([6]; 0-50 μg TPCK-trypsin/ml) was “negligible”. For the same molecule, the “release of microsomal aminopeptidase M activity” value ([6]; 50 μg TPCK-trypsin (485 units), of 0.5, 5, 50 or 500 μg/ml) was “greatest amount” and the “original amount of ApM released after a second digest” value ([6]; 5 g O. ostertagi digested twice with 50 μg/ml) was “About 33%”.
